Like-named read-outs stand apart in the source and are kept apart here.
Target: T1, human α7 nicotinic acetylcholine receptor (HEK cell line stably expressing human RIC-3 and human α7) (Homo sapiens, UniProt P36544)
T1 construct: host or cells: HEK cell line (PrecisION hnAChR α7/RIC-3)
Assay: Automated patch-clamp electrophysiology functional assay (Assay A), IonFlux HT, whole-cell population patch
Assay type: cell-based
Description: The α7 nAChR positive allosteric modulator (PAM) activity of the present compounds may be tested using assays known in the art. […] The assay was performed using the IonFlux HT in a whole-cell, population patch configuration. See Golden et al. Assay Drug Dev. Technol. […] The compounds were assessed for their ability to modulate the function of the human 7 nAChR stably expressed in a HEK cell line both in the presence, and in the absence of the natural 7 agonist acetylcholine. By performing a series of such measurements at different concentrations, the effective concentration of the 7 nAChR PAMs (EC50) was determined. See Spencer et al. Assay Drug Dev. Technol.
Direct activation of α7 (agonism), and potentiation of acetylcholine-evoked 7 currents was determined as follows:
Automated patch-clamp electrophysiology was performed using the IonFlux HT (Fluxion Biosciences Inc., San Francisco, Calif.) in the whole-cell, population patch configuration. Test compounds were assessed for their ability to modulate the function of the α7 nicotinic acetylcholine receptor both in the presence, and in the absence of the natural α7 agonist acetylcholine. […] Immediately prior to assay, cells were detached by first aspirating growth media, rinsing with Dulbecco's phosphate buffered saline, and then adding 10 mL of Accutase (Innovative Cell Technologies, San Diego, Calif.) to the flask and then incubating at 37° C. for 5 minutes. Detached cells were then recovered by the addition of 40 mL of CHO-serum-free media supplemented with 25 mM HEPES, and rocked gently in a 50 mL conical tube for 20 minutes prior to patch-clamp assay. After recovery, cells were pelleted by centrifugation at 1,000 RPM for 1 minute in a compact bench top centrifuge; recovery media was aspirated and cells were resuspended in external recording solution (150 mM NaCl, 5 mM KCl, 2 mM CaCl2), 1 mM MgCl2, 10 mM HEPES, 12 mM dextrose) to a density of 5.0×10^6 cells/mL. The cell suspension was added to the cell inlet wells on an IonFlux HT population patch plate which had previously been rinsed and primed with deionized H2O. Test compounds were serially diluted in DMSO and then resuspended to the final test concentration in external recording solution, with, or without 40 μM acetylcholine added to the external recording solution; test compounds were then transferred to the IonFlux HT population patch plate. Internal recording solution (110 mM TrisPO4, 28 mM TrisBase, 0.1 mM CaCl2, 2 mM MgCl2, 11 mM EGTA, 4 mM MgATP) was added to the internal recording solution inlet wells on the IonFlux HT patch plate previously loaded with cells and test compounds, and the plate loaded into the IonFlux HT instrument. A protocol was executed on the IonFlux HT to trap the cells, break into the cells, and establish the whole-cell recording configuration; cells were voltage-clamped at a holding potential of −60 mV for the duration of the experiment, all experiments were conducted at room temperature, and the IonFlux HT injection pressure was 8 psi for solution applications. Upon establishing the whole-cell configuration, external recording solution was perfused into the recording chambers for 120 seconds and then 40 μM acetylcholine was applied for 1 second and immediately washed off with external recording solution for 60 seconds. The 40 μM acetylcholine-evoked α7 current served as the current response to which subsequent test compound effects, in the presence, or in the absence of 40 μM acetylcholine would be quantified relative to. Next, test compounds were evaluated at multiple concentrations for their ability to induce, or modulate 7 current responses; three concentrations of test compound were evaluated in ascending dose fashion per recording.

[1] = HEK cells expressing human α7/RIC-3, test compound with or without 40 μM acetylcholine, holding potential −60 mV, room temperature, read-out: α7 nAChR Potency
[2] = automated patch-clamp electrophysiology functional assay (Assay A), read-out: α7 nAChR EC50

T1 sequence (P36544 23-502): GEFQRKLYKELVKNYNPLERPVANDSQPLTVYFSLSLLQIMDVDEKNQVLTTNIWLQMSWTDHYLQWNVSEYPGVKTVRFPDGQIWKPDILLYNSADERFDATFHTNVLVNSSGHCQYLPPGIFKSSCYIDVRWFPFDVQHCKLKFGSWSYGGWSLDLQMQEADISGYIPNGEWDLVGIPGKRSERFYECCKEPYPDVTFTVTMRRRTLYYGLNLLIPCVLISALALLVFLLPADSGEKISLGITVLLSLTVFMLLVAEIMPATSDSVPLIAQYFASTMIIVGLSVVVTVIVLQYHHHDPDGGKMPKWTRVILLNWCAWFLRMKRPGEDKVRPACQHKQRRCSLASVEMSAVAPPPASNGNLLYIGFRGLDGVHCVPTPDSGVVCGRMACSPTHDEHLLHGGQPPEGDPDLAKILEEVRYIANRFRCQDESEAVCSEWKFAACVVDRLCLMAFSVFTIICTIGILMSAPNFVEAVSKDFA

Row | EC50 [1] [nM] | EC50 [2] [nM] | Compound
1 | < 100 | 98 | Cn1nc2c(c1-c1nc([C@@H]3C(F)(F)C34CCN(S(N)(=O)=O)CC4)no1)CCC2 [Example 20, (2R)-1,1-Difluoro-2-[5-(2-methyl-2,4,5,6-tetrahydrocyclopenta[c]pyrazol-3-yl)-1,2,4-oxadiazol-3-yl]-6-azaspiro[2.5]octane-6-sulfonamide]
2 | 500 to 5000 | 670 | CS(=O)(=O)N1CCC2(CC1)C(c1nc(-c3ccc(F)cc3C(F)(F)F)no1)C2(F)F (centres unmarked) [Example 21, 1,1-Difluoro-2-{3-[4-fluoro-2-(trifluoromethyl)phenyl]-1,2,4-oxadiazol-5-yl}-6-(methylsulfonyl)-6-azaspiro[2.5]octane]
3 | < 100 | 99 | Cc1nn(C)c(-c2nc([C@@H]3C(F)(F)C34CCN(S(N)(=O)=O)CC4)no2)c1C [Example 22, (2R)-1,1-Difluoro-2-[5-(1,3,4-trimethyl-1H-pyrazol-5-yl)-1,2,4-oxadiazol-3-yl]-6-azaspiro[2.5]octane-6-sulfonamide]
4 | 500 to 5000 | 1400 | NS(=O)(=O)N1CCC2(CC1)C[C@H]2c1nc(-c2conc2C2CC2)co1 [Example 23, (1R)-1-[4-(3-Cyclopropylisoxazol-4-yl)-1,3-oxazol-2-yl]-6-azaspiro[2.5]octane-6-sulfonamide]
5 | < 100 | 90 | NS(=O)(=O)N1CCC2(CC1)[C@H](c1coc(-c3ccc(F)cc3C(F)(F)F)n1)C2(F)F [Example 24, (2R)-1,1-Difluoro-2-{2-[4-fluoro-2-(trifluoromethyl)phenyl]-1,3-oxazol-4-yl}-6-azaspiro[2.5]octane-6-sulfonamide]
6 | 100 to 500 | 210 | Cc1cn(C2CC2)nc1-c1nc([C@@H]2C(F)(F)C23CCN(S(N)(=O)=O)CC3)no1 [Example 25, (2R)-2-[5-(1-Cyclopropyl-4-methyl-1H-pyrazol-3-yl)-1,2,4-oxadiazol-3-yl]-1,1-difluoro-6-azaspiro[2.5]octane-6-sulfonamide]
7 | 500 to 5000 | 4000 | CCn1nc(-c2nc([C@@H]3CC34CCN(S(N)(=O)=O)CC4)no2)cc1C [Example 27, (1R)-1-[5-(1-Ethyl-5-methyl-TH-pyrazol-3-yl)-1,2,4-oxadiazol-3-yl]-6-azaspiro[2.5]octane-6-sulfonamide]
8 | 100 to 500 | 120 | Cc1onc(C2CC2)c1-c1cnc([C@@H]2CC23CCN(S(N)(=O)=O)CC3)o1 [Example 28, (1R)-1-[5-(3-Cyclopropyl-5-methylisoxazol-4-yl)-1,3-oxazol-2-yl]-6-azaspiro[2.5]octane-6-sulfonamide]
9 | 100 to 500 | 170 | NS(=O)(=O)N1CCC2(CC1)[C@H](c1noc(-c3cc(C(F)(F)F)nn3C3CC3)n1)C2(F)F [Example 29, (2R)-2-{5-[1-Cyclopropyl-3-(trifluoromethyl)-1H-pyrazol-5-yl]-1,2,4-oxadiazol-3-yl}-1,1-difluoro-6-azaspiro[2.5]octane-6-sulfonamide]
10 | < 100 | 2.4 | Cc1ccc(C2CC2)c(-c2nc([C@@H]3C(F)(F)C34CCN(S(N)(=O)=O)CC4)no2)c1 [Example 30, (2R)-2-[5-(2-Cyclopropyl-5-methylphenyl)-1,2,4-oxadiazol-3-yl]-1,1-difluoro-6-azaspiro[2.5]octane-6-sulfonamide]
11 | 100 to 500 | 130 | NS(=O)(=O)N1CCC2(CC1)[C@H](c1coc(-c3conc3C3CC3)n1)C2(F)F [Example 31, (2R)-2-[2-(3-Cyclopropylisoxazol-4-yl)-1,3-oxazol-4-yl]-1,1-difluoro-6-azaspiro[2.5]octane-6-sulfonamide]
12 | 100 to 500 | 390 | Cc1ccccc1-c1nc([C@@H]2CC23CCN(S(N)(=O)=O)CC3)no1 [Example 33, (1R)-1-[5-(2-Methylphenyl)-1,2,4-oxadiazol-3-yl]-6-azaspiro[2.5]octane-6-sulfonamide]
13 | < 100 | 4.5 | Cc1ccc(C)c(-c2nc([C@@H]3C(F)(F)C34CCN(S(N)(=O)=O)CC4)no2)c1 [Example 34, (2R)-2-[5-(2,5-Dimethylphenyl)-1,2,4-oxadiazol-3-yl]-1,1-difluoro-6-azaspiro[2.5]octane-6-sulfonamide]
14 | 100 to 500 | 150 | NS(=O)(=O)N1CCC2(CC1)[C@H](c1coc(-c3ccnc(OC(F)F)c3)n1)C2(F)F [Example 35, (2R)-2-{2-[2-(Difluoromethoxy)pyridin-4-yl]-1,3-oxazol-4-yl}-1,1-difluoro-6-azaspiro[2.5]octane-6-sulfonamide]
15 | 100 to 500 | 490 | COc1ccc(Cl)cc1-c1noc([C@@H]2CC23CCN(S(N)(=O)=O)CC3)n1 [Example A1]
16 | 100 to 500 | 320 | NS(=O)(=O)N1CCC2(CC1)C(c1nc(-c3ccccc3)no1)C2(F)F (centres unmarked) [Example A2]
17 | 500 to 5000 | 850 | NS(=O)(=O)N1CCC2(CC1)C[C@H]2c1nc(-c2cc(F)ccc2C(F)(F)F)no1 [Example A4]
18 | 500 to 5000 | 1100 | NS(=O)(=O)N1CCC2(CC1)CC2c1nc(-c2conc2C2CC2)no1 (centres unmarked) [Example C4]

Row | EC50 [1] [nM] | EC50 [2] [nM] | Compound
19 | < 100 | 11 | Cc1onc(C2CC2)c1-c1noc(C2C(F)(F)C23CCN(S(N)(=O)=O)CC3)n1 (centres unmarked) [Example C5]
20 | 100 to 500 | 420 | NS(=O)(=O)N1CCC2(CC1)C(c1nc(C3CCCCC3)no1)C2(F)F (centres unmarked) [Example C6]
21 | 500 to 5000 | 1100 | Cc1ncccc1-c1noc(C2C(F)(F)C23CCN(S(N)(=O)=O)CC3)n1 (centres unmarked) [Example C7]
22 | 500 to 5000 | 1300 | NS(=O)(=O)N1CCC2(CC1)C(c1nc(-c3ccnc(C(F)(F)F)c3)no1)C2(F)F (centres unmarked) [Example C8]
23 | 100 to 500 | 310 | NS(=O)(=O)N1CCC2(CC1)C(c1nc(-c3ccnc(OC(F)F)c3)no1)C2(F)F (centres unmarked) [Example C9]
24 | < 100 | 82 | Cc1cnn(C2CC2)c1-c1noc(C2C(F)(F)C23CCN(S(N)(=O)=O)CC3)n1 (centres unmarked) [Example C10]
25 | 500 to 5000 | 2500 | NS(=O)(=O)N1CCC2(CC1)C(c1nc(-c3ccn4ccnc4c3)no1)C2(F)F (centres unmarked) [Example C11]
26 | 100 to 500 | 170 | NS(=O)(=O)N1CCC2(CC1)CC2c1nc(-c2c(C(F)(F)F)noc2C2CC2)no1 (centres unmarked) [Example C12]
27 | 100 to 500 | 150 | NS(=O)(=O)N1CCC2(CC1)C(c1nc(-c3ccnn3C3CC3)no1)C2(F)F (centres unmarked) [Example C14]
28 | < 100 |  | NS(=O)(=O)N1CCC2(CC1)C(c1nc(-c3c(C4CC4)noc3C(F)(F)F)no1)C2(F)F (centres unmarked) [Example C15]
29 | < 100 | 37 | NS(=O)(=O)N1CCC2(CC1)C(c1nc(-c3c(C(F)(F)F)noc3C3CC3)no1)C2(F)F (centres unmarked) [Example C16]
30 | 500 to 5000 | 520 | NS(=O)(=O)N1CCC2(CC1)C[C@H]2c1noc(-c2cccc(C(F)(F)F)c2)n1 [Example D1]
31 | 5000 to 50000 | 5300 | N#Cc1ccccc1-c1nc([C@@H]2CC23CCN(S(N)(=O)=O)CC3)no1 [Example D3]
32 | 100 to 500 | 190 | NS(=O)(=O)N1CCC2(CC1)C[C@H]2c1noc(-c2ccccc2OC(F)F)n1 [Example D4]
33 | 100 to 500 |  | NS(=O)(=O)N1CCC2(CC1)C[C@H]2c1noc(-c2cc(Br)ccc2C(F)(F)F)n1 [Example D6]
34 | 500 to 5000 | 590 | NS(=O)(=O)N1CCC2(CC1)C[C@H]2c1noc(-c2ccc(Cl)cc2C(F)(F)F)n1 [Example D7]
35 | 500 to 5000 | 1300 | NS(=O)(=O)N1CCC2(CC1)C[C@H]2c1noc(-c2ccccc2)n1 [Example D8]

From patent US11332463B2, “Spiropiperidine allosteric modulators of nicotinic acetylcholine receptors” (Merck Sharp & Dohme Corp., priority 2018, dated 2022)
